Active and inactive are the calls of the source. The rule behind the calls is not given here.

Experiment [1] deals with Norepinephrine transporter (Rattus norvegicus, UniProt Q9WTR4). Put plainly: Displacement of [3H]-nisoxetine from NET in Sprague-Dawley rat brain prefrontal cortex incubated for 180 mins by radioligand binding assay. In kind it is tissue-based.
The target of experiment [2] is Sodium-dependent dopamine transporter (Rattus norvegicus, UniProt P23977). Put plainly: Displacement of [3H]-WIN 3542875 from DAT in Sprague-Dawley rat brain striatum incubated for 120 mins by radioligand binding assay. In kind it is tissue-based.
Sequence of Sodium-dependent dopamine transporter (P23977 whole entry): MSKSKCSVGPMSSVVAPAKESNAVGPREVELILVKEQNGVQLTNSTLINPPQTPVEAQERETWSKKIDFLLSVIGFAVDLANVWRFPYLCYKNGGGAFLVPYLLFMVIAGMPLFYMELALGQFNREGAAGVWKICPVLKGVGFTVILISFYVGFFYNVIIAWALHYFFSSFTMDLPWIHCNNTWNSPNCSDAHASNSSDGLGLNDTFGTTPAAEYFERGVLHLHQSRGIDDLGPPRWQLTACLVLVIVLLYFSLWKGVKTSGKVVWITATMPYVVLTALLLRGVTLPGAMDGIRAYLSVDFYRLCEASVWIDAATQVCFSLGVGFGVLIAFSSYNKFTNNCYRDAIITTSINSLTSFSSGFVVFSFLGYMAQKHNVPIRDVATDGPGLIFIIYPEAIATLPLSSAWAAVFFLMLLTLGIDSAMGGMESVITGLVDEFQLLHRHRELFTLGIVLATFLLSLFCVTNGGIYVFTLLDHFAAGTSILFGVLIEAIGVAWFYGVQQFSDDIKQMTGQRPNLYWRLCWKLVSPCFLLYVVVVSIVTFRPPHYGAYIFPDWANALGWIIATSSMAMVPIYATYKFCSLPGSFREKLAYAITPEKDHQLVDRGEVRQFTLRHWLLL
For experiment [3], the target named is Sodium-dependent serotonin transporter (Rattus norvegicus, UniProt P31652). Put plainly: Displacement of [3H]-citalopram from SERT in Sprague-Dawley rat brainstem incubated for 60 mins by radioligand binding assay. In kind it is tissue-based.
Sequence of Sodium-dependent serotonin transporter (P31652 whole entry): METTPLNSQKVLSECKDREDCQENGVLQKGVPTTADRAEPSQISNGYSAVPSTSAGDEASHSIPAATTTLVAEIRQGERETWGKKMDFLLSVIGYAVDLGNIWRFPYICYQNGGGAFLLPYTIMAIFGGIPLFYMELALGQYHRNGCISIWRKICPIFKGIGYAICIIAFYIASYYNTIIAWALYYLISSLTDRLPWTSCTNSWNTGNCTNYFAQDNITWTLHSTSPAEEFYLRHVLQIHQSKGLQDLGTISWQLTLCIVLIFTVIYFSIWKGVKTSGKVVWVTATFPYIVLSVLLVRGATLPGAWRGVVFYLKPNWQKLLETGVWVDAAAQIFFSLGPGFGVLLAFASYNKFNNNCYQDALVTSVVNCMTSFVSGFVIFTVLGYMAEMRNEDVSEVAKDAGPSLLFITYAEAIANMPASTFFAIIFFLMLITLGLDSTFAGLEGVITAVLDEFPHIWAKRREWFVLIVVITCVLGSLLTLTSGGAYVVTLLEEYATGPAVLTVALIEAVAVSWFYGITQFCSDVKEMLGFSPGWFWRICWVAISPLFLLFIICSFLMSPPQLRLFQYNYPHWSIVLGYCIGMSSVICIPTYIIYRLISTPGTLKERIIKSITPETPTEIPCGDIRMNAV
The target in experiment [4] is Sodium-dependent noradrenaline transporter (Homo sapiens) (UniProt P23975). Put plainly: Binding affinity to human NET expressed in HEK293 cells assessed as fluorescence increase at plasma membrane at 1 to 10 nM incubated for 10 mins by laser scanning microscopy. The settings on record: dose 1-10 nM, DDE = dose-dependent effect.
Sequence of Sodium-dependent noradrenaline transporter (Homo sapiens) (P23975 whole entry): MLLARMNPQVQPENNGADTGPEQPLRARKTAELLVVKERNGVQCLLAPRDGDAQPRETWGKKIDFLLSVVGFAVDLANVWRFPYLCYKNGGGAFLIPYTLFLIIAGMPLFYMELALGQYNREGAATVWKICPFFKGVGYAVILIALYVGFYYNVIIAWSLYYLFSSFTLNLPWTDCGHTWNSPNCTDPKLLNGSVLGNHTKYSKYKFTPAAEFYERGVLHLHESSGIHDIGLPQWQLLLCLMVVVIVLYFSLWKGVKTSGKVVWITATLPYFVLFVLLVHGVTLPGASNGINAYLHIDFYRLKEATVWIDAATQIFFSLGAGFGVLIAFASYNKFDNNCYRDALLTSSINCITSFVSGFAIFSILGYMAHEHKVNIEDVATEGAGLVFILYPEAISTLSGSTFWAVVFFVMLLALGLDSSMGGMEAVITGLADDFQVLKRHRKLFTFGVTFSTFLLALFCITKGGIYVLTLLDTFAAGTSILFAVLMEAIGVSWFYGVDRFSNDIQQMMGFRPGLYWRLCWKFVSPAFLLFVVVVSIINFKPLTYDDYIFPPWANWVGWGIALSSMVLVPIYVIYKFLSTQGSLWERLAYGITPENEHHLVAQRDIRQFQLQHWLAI
The species entered for experiment [5] is Rattus norvegicus. The experiment is described as follows: Selectivity index, ratio of Ki for displacement of [3H]-citalopram from SERT in Sprague-Dawley rat brainstem to Ki for Displacement of [3H]-nisoxetine from NET in Sprague-Dawley rat brain prefrontal cortex.
Experiment [6] has as its target Sodium-dependent noradrenaline transporter (Homo sapiens) (UniProt P23975). The experiment is described as follows: Binding affinity to YFP-tagged human NET expressed in HEK293 cells assessed as fluorescence increase at plasma membrane at 10 nM incubated for 1 to 20 mins by laser scanning microscopy. Particulars: time 1-20 min, TDE = time-dependent effect.
The species entered for experiment [7] is Rattus norvegicus. Put plainly: Selectivity index, ratio of Ki for Displacement of [3H]-WIN 3542875 from DAT in Sprague-Dawley rat brain striatum to Ki for Displacement of [3H]-nisoxetine from NET in Sprague-Dawley rat brain prefrontal cortex.
For experiment [8], the target named is Sodium-dependent serotonin transporter (Homo sapiens) (UniProt P31645). Put plainly: Binding affinity to human SERT expressed in HEK293 cells at 10 nM incubated for 20 mins by laser scanning microscopy. In kind it is cell-based.
Sequence of Sodium-dependent serotonin transporter (Homo sapiens) (P31645 whole entry, looked up): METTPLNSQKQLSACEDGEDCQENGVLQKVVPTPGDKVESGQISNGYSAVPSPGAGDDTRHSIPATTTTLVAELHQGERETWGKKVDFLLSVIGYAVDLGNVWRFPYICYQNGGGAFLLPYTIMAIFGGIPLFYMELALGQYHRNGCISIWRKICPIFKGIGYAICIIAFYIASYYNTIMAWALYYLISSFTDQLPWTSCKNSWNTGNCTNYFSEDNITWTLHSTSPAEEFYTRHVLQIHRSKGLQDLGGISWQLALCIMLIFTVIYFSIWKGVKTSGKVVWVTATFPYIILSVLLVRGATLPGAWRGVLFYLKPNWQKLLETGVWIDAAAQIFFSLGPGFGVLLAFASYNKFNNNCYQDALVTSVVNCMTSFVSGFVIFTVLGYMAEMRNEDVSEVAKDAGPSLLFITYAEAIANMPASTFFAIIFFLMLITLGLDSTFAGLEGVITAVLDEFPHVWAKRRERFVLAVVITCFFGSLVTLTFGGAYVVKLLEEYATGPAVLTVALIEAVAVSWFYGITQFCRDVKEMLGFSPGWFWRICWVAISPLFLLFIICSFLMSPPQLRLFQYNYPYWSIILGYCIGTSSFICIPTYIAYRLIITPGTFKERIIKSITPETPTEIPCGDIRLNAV

Sequence of Norepinephrine transporter (Q9WTR4 whole entry): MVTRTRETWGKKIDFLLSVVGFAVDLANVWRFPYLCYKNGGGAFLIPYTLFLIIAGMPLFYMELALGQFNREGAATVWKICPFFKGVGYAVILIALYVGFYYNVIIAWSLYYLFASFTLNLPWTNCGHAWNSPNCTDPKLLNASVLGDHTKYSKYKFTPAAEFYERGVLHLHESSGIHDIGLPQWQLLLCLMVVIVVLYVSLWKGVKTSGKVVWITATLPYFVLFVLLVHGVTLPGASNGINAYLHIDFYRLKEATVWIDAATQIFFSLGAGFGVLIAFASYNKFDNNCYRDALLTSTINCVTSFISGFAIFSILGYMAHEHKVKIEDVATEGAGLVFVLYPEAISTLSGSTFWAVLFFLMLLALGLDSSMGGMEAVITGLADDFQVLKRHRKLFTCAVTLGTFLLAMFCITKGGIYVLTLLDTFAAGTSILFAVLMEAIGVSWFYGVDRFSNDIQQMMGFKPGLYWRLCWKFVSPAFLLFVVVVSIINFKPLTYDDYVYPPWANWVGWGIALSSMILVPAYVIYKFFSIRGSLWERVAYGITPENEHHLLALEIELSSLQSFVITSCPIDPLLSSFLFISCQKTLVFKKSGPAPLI

Turning to `CCN(CC)c1ccc2c(-c3ccc(S(=O)(=O)NCCCCCC(=O)NCCNCCCC4(c5ccccc5)OC(C)(C)c5ccccc54)cc3S(=O)(=O)[O-])c3ccc(=[N+](CC)CC)cc-3oc2c1` (stereo not given), the figures for the inhibition constant Ki in experiment [1], in experiment [2] and in experiment [3] were greater than 10000 nM, 4870 nM and greater than 10000 nM, respectively.
With `CCN(CC)c1ccc2c(-c3ccc(S(=O)(=O)NCCCCCC(=O)NCc4cccc(C(CCNC)Oc5ccccc5OC)c4)cc3S(=O)(=O)[O-])c3ccc(=[N+](CC)CC)cc-3oc2c1` (stereo not given), the Activity entry was “Dde” in experiment [4] and “Tde” in experiment [6]. In addition, the Ratio Ki worked out at 18 in the experiment filed under Rattus norvegicus [5] and 36 in the experiment listed under Rattus norvegicus [7]. Also, the Ki in experiment [1] came out at 43 nM; in experiment [2], 1540 nM; in experiment [3], 785 nM. Further, in experiment [8], the outcome was Active.
`CCN(CC)c1ccc2c(-c3ccc(S(=O)(=O)NCCCCCC(=O)NCCN4C5CCC4[C@@H](C(=O)OC)[C@@H](c4ccc(Cl)c(Cl)c4)C5)cc3S(=O)(=O)[O-])c3ccc(=[N+](CC)CC)cc-3oc2c1` (stereo not given in full): the inhibition constant (Ki) in experiment [1] came to 79 nM; in experiment [2] it was 17 nM; in experiment [3] it was 16 nM.
For `CCN(CC)c1ccc2c(-c3ccc(S(=O)(=O)NCCCCCC(=O)NCc4ccc5c(c4)C(C)(C)OC5(CCCNC)c4ccccc4)cc3S(=O)(=O)[O-])c3ccc(=[N+](CC)CC)cc-3oc2c1` (stereo not given) the same measures were greater than 10000 nM, 964 nM and 1140 nM.
Taken in the same sequence, the figures for `CNCCCC1(c2ccccc2)OC(C)(C)c2ccccc21` (stereo not given) [TALOPRAM] were 4.5 nM, greater than 10000 nM and 795 nM.

The values are drawn from ChEMBL document CHEMBL5136963 (RSC Med Chem, 2021).
